Reference: ChEMBL document CHEMBL1914290, “3,4-Disubstituted oxazolidin-2-ones as constrained ceramide analogs with anticancer activities” (Bioorg Med Chem, 2011)
The source made the active and inactive calls. The rule behind the calls is not given here.

Assays:
HL-60 [1] = test: Antileukemic activity against human HL60 cells at 20 uM after 16 hrs by MTT assay; type: functional, cell-based
HL-60 [2] = test: Induction of apoptosis in human HL60 cells assessed as DNA fragmentation at 20 uM after 15 hrs; type: functional, cell-based

| Structure (SMILES) | Activity (HL-60 [1]) | Activity (HL-60 [2]) |
| --- | --- | --- |
| CCCCCCCCCCCCC/C=C/[C@@H](O)[C@@H]1COC(=O)N1C(=O)CCCCCCCCCCCCCCC | inactive | Active |
| CCCCCCCCCCCCC/C=C/[C@@H](O)[C@@H]1COC(=O)N1C(=O)CC | Active | Active |
| CCCC/C=C/[C@@H](O)[C@@H]1COC(=O)N1C(=O)C1CCCC1 | inactive | – |
| O=C1OC[C@@H]([C@H](O)/C=C/C2CCCCC2)N1C(=O)C1CCCC1 | inactive | – |
| CCCCCCCCCCCCC/C=C/[C@@H](O)[C@@H]1COC(=O)N1C(C)=O | Active | Active |
| CCCCCCCCCCCCC/C=C/[C@@H](O)[C@@H]1COC(=O)N1C(=O)c1ccco1 | Active | – |
| CCCCCCCCCCCCC/C=C/[C@@H](O)[C@@H]1COC(=O)N1C(=O)c1ccccc1 | Active | Active |
| CCCCCCCCCCCCC/C=C/[C@@H](O)[C@@H]1COC(=O)N1C(=O)C(C)(C)C | Active | – |
| O=C1OC[C@@H]([C@H](O)/C=C/C2CCCC2)N1C(=O)C1CCCC1 | inactive | – |
| CCCCCCCCCCCCC/C=C/[C@@H](O)[C@@H]1COC(=O)N1C(=O)c1cccc2ccccc12 | Active | – |
| CCCCCCCCCCCCC/C=C/[C@@H](O)[C@@H]1COC(=O)N1C(=O)Cc1ccccc1 | inactive | – |
| CCCCCCCCCCCCC/C=C/[C@@H](O)[C@@H]1COC(=O)N1C(=O)c1ccc([N+](=O)[O-])cc1 | Active | Active |
| CCCCCCCC/C=C/[C@@H](O)[C@@H]1COC(=O)N1C(=O)C1CCCC1 | inactive | – |
| CCCCCCCCCCCCC/C=C/[C@@H](O)[C@@H]1COC(=O)N1C(=O)c1ccccc1OC | Active | – |
| CCCCCC/C=C/[C@@H](O)[C@@H]1COC(=O)N1C(=O)C1CCCC1 | inactive | – |
| CCCCCCCCCCCCC/C=C/[C@@H](O)[C@@H]1COC(=O)N1C(=O)C(C)C | Active | Active |
| O=C1OC[C@@H]([C@H](O)/C=C/Cc2ccccc2)N1C(=O)C1CCCC1 | inactive | – |
| CCCCCCCCCC/C=C/[C@@H](O)[C@@H]1COC(=O)N1C(=O)C1CCCC1 | Active | – |
| CCCCCCCCCCCCC/C=C/[C@@H](O)[C@@H]1COC(=O)N1C(=O)C1CCCC1 | Active | Active |
| CCCCCCCCCCCCC/C=C/[C@@H](O)[C@@H]1COC(=O)N1C(=O)C/C=C/c1ccccc1 | inactive | – |
